Patent publication US20230105212A1, “BIPHENYL DERIVATIVE INHIBITOR, PREPARATION METHOD THEREFOR AND USE THEREOF” (SHANGHAI HANSOH BIOMEDICAL CO., LTD., priority 2020, published 2023)

Tests used:
[1] = Plasma protein binding rate (equilibrium dialysis); format: in vitro ADME; conditions: mouse plasma, equilibrium dialysis 37° C. 5 hours
Procedure: Test Embodiment 8. Plasma Protein Binding Rate Experiment
The purpose of this experimental method was to detect the plasma protein binding of the embodiment compounds in plasma.
The frozen plasma was thawed at room temperature or in a water bath at 37° C., then centrifuged at 3500 rpm for 5 min, and the supernatant was taken.
Preparation of compound working solution: Stock solutions were diluted with DMSO to a final concentration of 1 mM.
2.5 μL of compound working solution was added to 497.5 μL of blank plasma to a final concentration of 5 μM, shaked and mixed well.
1) The equilibrium dialysis device was prepared, and the detection membrane device was put into the equilibrium dialysis 96-well plate;
2) 200 μL of the prepared plasma solution was added to the membrane, n=2;
3) another 5 μL of plasma solution was taken, diluted 10 times with 45 μL of blank plasma of the same species, and 200 μL of acetonitrile termination solution containing internal standard was added, and stored in a −20° C. refrigerator;
4) 350 μL of dialysate (100 mM phosphate buffer) was added outside the membrane;
5) the dialysis plate was sealed and incubated in a 37° C. water bath for 5 hours;
6) after dialysis, 5 μL was taken out from the sample hole in the membrane, and diluted 10 times with 45 μL of blank plasma of the same species; 50 μL of dialysate was taken out from the sample hole outside the membrane, and 200 μL of acetonitrile termination solution containing internal standard was added;
7) the supernatant was taken after sample centrifugation;

[2] = system: NFAT-luc2/PD1 Jurkat cells; test: In vitro cytotoxicity on NFAT-luc2/PD1 Jurkat cells (CellTiter-Glo); format: cell-based; conditions: 72 hours
Outline: (§1)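 Cells plated overnight at 37° C, 5% CO2, then exposed to serial compound dilutions for 72 hours. Viability measured by CellTiter-Glo luminescence; inhibition rate versus vehicle fitted by nonlinear regression to give IC50.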

[3] = system: MC38-hPDL1 cells; test: In vitro cytotoxicity on MC38-hPDL1 cells (CellTiter-Glo); format: cell-based, mouse
Outline: as §1

[4] = system: C57 mice subcutaneous xenografts tumor of MC38-hPDL1 cells; test: Tumor inhibition experiment on MC38-hPDL1 xenograft model; format: in vivo
Procedure: Test Embodiment 10. Tumor Inhibition Experiment on MC38-hPDL1 Xenograft Model
To evaluate the antitumor activity of the test compounds against C57 mice subcutaneous xenografts tumor of MC38-hPDL1 cells.
MC38-hPDL1 cells were taken out from the cell bank, added to DMEM medium (DMEM+10% FBS) after recovery, and placed in a CO2 incubator (incubator temperature was 37° C., CO2 concentration was 5%) to culture. MC38-hPDL1 cells were collected when the number of cells increased to the required number of inoculation in vivo. Counted with an automatic cell counter, and resuspend the cells with PBS according to the counting results to prepare a cell suspension (density was 1×10^6/mL), and placed in an ice box for use.
6-8-week-old female C57 mice weighing approximately 18-22 grams were used. Mice were housed in SPF animal room, single cage, 4-5 mice per cage. All cages, litter and water were sterilized at high temperature before use, and all animals had free access to food and water. Before the start of the experiment, C57 mice were marked with a disposable ear tag for rats and mice, and the skin of the inoculation site was disinfected with 75% alcohol before inoculation. Each mouse was subcutaneously inoculated with 0.1 mL (containing 1*10^5 cells) of MC38-hPDL1 cells on the right back. […] […] Tumor volume was measured twice a week and mice were weighed twice a week, and tumor TGI (%) was calculated.
Tumor volume (mm^3), the calculation formula was: V=0.5*D*d*d, wherein D and d were the long and short diameters of the tumor, respectively.
When the tumor regressed, TGI(%)=[1−(average tumor volume at the end of administration of a treatment group-average tumor volume at the beginning of administration of this treatment group)/average tumor volume at the beginning of administration of this treatment group]×100%.

[5] = Pharmacokinetic test of plasma and tumor of tumor-bearing nude mice; format: in vivo; conditions: tumor-bearing nude mice, p.o. 30 mg/kg
Procedure: Test Embodiment 7. Pharmacokinetic Test of Plasma and Tumor of Tumor-Bearing Nude Mice
Taking tumor-bearing nude mice as the test animals, the pharmacokinetic behavior in the plasma and tumor of tumor-bearing nude mice of the following compound embodiments was studied when orally administered at a dose of 30 mg/kg.
Tumor-bearing nude mouse 21/embodiment, female, Shanghai B&K Laboratory Animal Co., Ltd., animal production license number (SCXK (Shanghai) 2013-0006 No. 311620400001794).
0.5% HPMC (1% Tween 80), dissolved by sonication, to prepare a clear solution or a homogeneous suspension.
Tumor-bearing nude mice, female; p.o. after overnight fasting, respectively, at a dose of 30 mg/kg, administered in a volume of 10 mL/kg.
Before and after administration of tumor-bearing nude mice, at 0, 1, 2, 4, 6, 8, 16 and 24 hours, 0.1 mL of blood was collected from the orbit, placed in an EDTA-K2 test tube, and centrifuged at 6000 rpm at 4° C. for 6 min to separate the plasma. After dissection, the tumor tissue was weighed and stored at −80° C.
1) Tumor tissue was homogenized with methanol and water at a ratio of 1:3, and then centrifuged to get the supernatant. 40 μL of tumor homogenate supernatant and 40 μL of plasma sample were added to 160 μL of acetonitrile for precipitation, and after mixing, centrifuged at 3500×g for 5 to 20 minutes.
2) 100 μL of the supernatant solution after treatment was taken for LC/MS/MS to analyze the concentration of the compounds to be tested.
2.7 Liquid Phase Analysis • Liquid phase condition: Shimadzu LC-20AD pump • MS conditions: AB Sciex API 4000 Mass Spectrometer • Chromatographic column: phenomenex Gemiu 5 μm C18 50×4.6 mm • Mobile phase: A solution was aqueous 0.1% formic acid solution, B solution was acetonitrile • Flow rate: 0.8 mL/min • Elution time: 0 to 4.0 minutes, the eluent was as follows:
The main parameters of pharmacokinetics were calculated with WinNonlin 8.2, and the results of the tumor-bearing nude mice pharmacokinetic experiments were shown in the following table: […]

Row | Compound | fraction unbound at 5 h, 5 μM [1] | Jurkat-PD1 inhibition rate (%) [2] | IC50 ([2]; Homo sapiens, Jurkat) | MC38-hPDL1 inhibition rate (%) ([3]; 72 hours) | IC50 ([3]; Mus musculus, MC38-hPD-L1, 72 hours) | TGI (%) Day 15 ([4]; 60 mpk po bid, n=7) | Tumor volume (mm^3, Mean ± SD) Day 1 ([4]; 60 mpk po bid, n=7) | Tumor volume (mm^3, Mean ± SD) Day 14 ([4]; 60 mpk po bid, n=7) | ΔT/ΔC (%) Day 15 ([4]; 60 mpk po bid, n=7) | Kp ([5]; female, mouse, tumor/plasma, po, read-out: Tumor plasma ratio) | Drug concentration in plasma [5] | Drug concentration in tumor [5] | TGI (%) Day 15 ([4]; 10 mpk po bid, n=8) | Tumor volume (mm^3, Mean ± SD) Day 1 ([4]; 10 mpk po bid, n=8) | Tumor volume (mm^3, Mean ± SD) Day 14 ([4]; 10 mpk po bid, n=8) | ΔT/ΔC (%) Day 15 ([4]; 10 mpk po bid, n=8) | TGI (%) Day 15 ([4]; 30 mpk po qd, n=8) | Tumor volume (mm^3, Mean ± SD) Day 1 ([4]; 30 mpk po qd, n=8) | Tumor volume (mm^3, Mean ± SD) Day 14 ([4]; 30 mpk po qd, n=8) | ΔT/ΔC (%) Day 15 ([4]; 30 mpk po qd, n=8)
1 | COc1nc(-c2cccc(-c3cccc(NC(=O)c4nc5c(n4C)CCN(C)C5)c3Cl)c2Cl)ccc1CNC1COC1 [Embodiment 114, N-(2,2′-Dichloro-3′-(6-methoxy-5-((oxetan-3-ylamino)methyl)pyridin-2-yl)-[1,1′-biphenyl]-3-yl)-1,5-dimethyl-4,5,6,7-tetrahydro-1H-imidazo[4,5-c]pyridine-2-carboxamide] | 0.0033 | 69.0%^ | 7.63 µM | 14.0%^ | > 10 µM | 74.92% | 69.72 ± 21.92 mm^3 | 140.27 ± 77.92 mm^3 | 25.08% | – | – | – | – | – | – | – | – | – | – | –
2 | COc1nc(-c2cccc(-c3cccc(NC(=O)c4nc5c(n4C)CCN(C)C5)c3Cl)c2Cl)ccc1CN1CC2(C1)CN(C(C)=O)C2 [Embodiment 123, N-(3′-(5-((6-Acetyl-2,6-diazaspiro[3.3]heptan-2-yl)methyl)-6-methoxypyridin-2-yl)-2,2′-dichloro-[1,1′-biphenyl]-3-yl)-1,5-dimethyl-4,5,6,7-tetrahydro-1H-imidazo[4,5-c]pyridine-2-carboxamide] | 0.0095 | – | – | – | – | – | – | – | – | 2.8 | 821 ng/mL | 2285 ng/mL | 63.70% | 75.93 ± 26.17 mm^3 | 644.86 ± 398.92 mm^3 | 36.30% | 67.62% | 75.50 ± 25.70 mm^3 | 582.87 ± 359.11 mm^3 | 32.38%
